According to article PMC5522427, “Structural and Functional Analysis of Latex Clearing Protein (Lcp) Provides Insight into the Enzymatic Cleavage of Rubber” (Scientific Reports, 2017):

Target: T1, LcpK30 (Streptomyces sp. K30, UniProt Q3L8N0)
T1 construct: gene lcp; monomer; residues 31-403 modelled; haem b
Assay: crystal structure of complex ([…] Å); EPR
Assay type: binding
Settings: open state; imidazole coordinates haem iron as distal axial ligand, replacing Lys167; 0.2 M malate/imidazole pH 7.5 (crystal); 1 mM imidazole (EPR); ferric as isolated

T1 sequence (Q3L8N0 31-407): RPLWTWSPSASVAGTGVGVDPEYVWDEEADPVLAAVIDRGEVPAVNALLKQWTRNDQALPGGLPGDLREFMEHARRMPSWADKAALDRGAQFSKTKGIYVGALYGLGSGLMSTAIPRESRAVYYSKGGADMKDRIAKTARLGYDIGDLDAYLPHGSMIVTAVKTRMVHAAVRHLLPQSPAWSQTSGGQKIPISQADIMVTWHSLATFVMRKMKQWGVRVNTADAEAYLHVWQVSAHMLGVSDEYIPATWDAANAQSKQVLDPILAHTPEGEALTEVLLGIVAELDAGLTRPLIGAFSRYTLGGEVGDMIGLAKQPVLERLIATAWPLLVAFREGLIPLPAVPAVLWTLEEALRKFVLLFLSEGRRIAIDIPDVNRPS

## c1c[nH]cn1 [imidazole]
  crystal structure of complex (1.48 Å); EPR: the distal axial position at the haem iron was now occupied by an imidazole molecule
